From the NIST ThermoML archive (doi:10.1021/je060429r)
Several values for one entry are separate records, joined by “and”; a condition that tells them apart may be missing. Equal entries are not always repeated. Numbers after ± are expanded uncertainties.

Details: Transpiration method

Clc1c(Cl)c(Cl)c(Cl)c(Cl)c1Cl [hexachlorobenzene]
vapor or sublimation pressure (358 K, Crystal): 0.00144 ± 7e-05 kPa
vapor or sublimation pressure (362.9 K, Crystal): 0.00216 ± 0.00011 kPa
vapor or sublimation pressure (368.9 K, Crystal): 0.00373 ± 0.00018 kPa
vapor or sublimation pressure (373.1 K, Crystal): 0.00519 ± 0.00026 kPa
vapor or sublimation pressure (377.8 K, Crystal): 0.00771 ± 0.00038 kPa
vapor or sublimation pressure (382.9 K, Crystal): 0.01123 ± 0.00055 kPa
vapor or sublimation pressure (389 K, Crystal): 0.01836 ± 0.00089 kPa
vapor or sublimation pressure (392.8 K, Crystal): 0.0238 ± 0.0011 kPa
vapor or sublimation pressure (397.9 K, Crystal): 0.03341 ± 0.0016 kPa
vapor or sublimation pressure (402.8 K, Crystal): 0.04901 ± 0.0024 kPa

Oc1ccc(Cl)c(Cl)c1 [3,4-dichlorophenol]
vapor or sublimation pressure (291.4 K, Crystal): 0.00027 ± 2e-05 kPa
vapor or sublimation pressure (294.3 K, Crystal): 0.0004 ± 2e-05 kPa
vapor or sublimation pressure (300.3 K, Crystal): 0.00086 ± 4e-05 kPa
vapor or sublimation pressure (303.5 K, Crystal): 0.00121 ± 6e-05 kPa
vapor or sublimation pressure (306.7 K, Crystal): 0.00177 ± 9e-05 kPa
vapor or sublimation pressure (309.5 K, Crystal): 0.00247 ± 0.00013 kPa
vapor or sublimation pressure (314.3 K, Crystal): 0.00423 ± 0.00021 kPa
vapor or sublimation pressure (317.2 K, Crystal): 0.00587 ± 0.0003 kPa
vapor or sublimation pressure (320.4 K, Crystal): 0.00806 ± 0.00041 kPa
vapor or sublimation pressure (323.3 K, Crystal): 0.01069 ± 0.00055 kPa
vapor or sublimation pressure (326.3 K, Crystal): 0.01474 ± 0.00075 kPa
vapor or sublimation pressure (329.3 K, Crystal): 0.01992 ± 0.001 kPa
vapor or sublimation pressure (332.3 K, Crystal): 0.02618 ± 0.0013 kPa
vapor or sublimation pressure (335.3 K, Crystal): 0.03423 ± 0.0017 kPa
vapor or sublimation pressure (337.3 K, Crystal): 0.04096 ± 0.002 kPa
vapor or sublimation pressure (341.3 K, Liquid): 0.057 ± 0.0028 kPa
vapor or sublimation pressure (344.3 K, Liquid): 0.0703 ± 0.0034 kPa
vapor or sublimation pressure (347.2 K, Liquid): 0.0854 ± 0.0041 kPa
vapor or sublimation pressure (350.3 K, Liquid): 0.1055 ± 0.0051 kPa
vapor or sublimation pressure (353.2 K, Liquid): 0.127 ± 0.0061 kPa
vapor or sublimation pressure (356.3 K, Liquid): 0.1544 ± 0.0074 kPa
vapor or sublimation pressure (359.2 K, Liquid): 0.1858 ± 0.0089 kPa
vapor or sublimation pressure (362.2 K, Liquid): 0.223 ± 0.011 kPa
vapor or sublimation pressure (365.4 K, Liquid): 0.2696 ± 0.013 kPa
vapor or sublimation pressure (368.4 K, Liquid): 0.3217 ± 0.015 kPa

Oc1cccc(Cl)c1Cl [2,3-dichlorophenol]
vapor or sublimation pressure (294.3 K, Crystal): 0.0078 ± 0.0004 kPa
vapor or sublimation pressure (297.3 K, Crystal): 0.0107 ± 0.0006 kPa
vapor or sublimation pressure (300.2 K, Crystal): 0.0149 ± 0.0008 kPa
vapor or sublimation pressure (303.2 K, Crystal): 0.0192 ± 0.001 kPa
vapor or sublimation pressure (306.2 K, Crystal): 0.0267 ± 0.0013 kPa
vapor or sublimation pressure (309.2 K, Crystal): 0.0351 ± 0.0018 kPa
vapor or sublimation pressure (312.2 K, Crystal): 0.0482 ± 0.0024 kPa
vapor or sublimation pressure (315.2 K, Crystal): 0.0633 ± 0.0031 kPa
vapor or sublimation pressure (318.1 K, Crystal): 0.0798 ± 0.004 kPa
vapor or sublimation pressure (321.2 K, Crystal): 0.1081 ± 0.0054 kPa
vapor or sublimation pressure (324.3 K, Crystal): 0.1429 ± 0.0071 kPa
vapor or sublimation pressure (327.3 K, Crystal): 0.1835 ± 0.0089 kPa
vapor or sublimation pressure (331.2 K, Liquid): 0.2449 ± 0.012 kPa
vapor or sublimation pressure (334.3 K, Liquid): 0.2946 ± 0.014 kPa
vapor or sublimation pressure (337.2 K, Liquid): 0.3508 ± 0.017 kPa
vapor or sublimation pressure (340.3 K, Liquid): 0.4132 ± 0.02 kPa
vapor or sublimation pressure (343.2 K, Liquid): 0.4874 ± 0.023 kPa
vapor or sublimation pressure (346.2 K, Liquid): 0.5745 ± 0.027 kPa
vapor or sublimation pressure (349.2 K, Liquid): 0.6662 ± 0.032 kPa
vapor or sublimation pressure (352.1 K, Liquid): 0.7881 ± 0.037 kPa
vapor or sublimation pressure (355.2 K, Liquid): 0.9247 ± 0.044 kPa
vapor or sublimation pressure (358.2 K, Liquid): 1.078 ± 0.051 kPa

Oc1c(Cl)cc(Cl)cc1Cl [2,4,6-trichlorophenol]
vapor or sublimation pressure (299.4 K, Crystal): 0.00177 ± 9e-05 kPa
vapor or sublimation pressure (302.3 K, Crystal): 0.00245 ± 0.00012 kPa
vapor or sublimation pressure (305.2 K, Crystal): 0.00319 ± 0.00016 kPa
vapor or sublimation pressure (308.3 K, Crystal): 0.0044 ± 0.00022 kPa
vapor or sublimation pressure (311.3 K, Crystal): 0.00593 ± 0.0003 kPa
vapor or sublimation pressure (314.3 K, Crystal): 0.00805 ± 0.00041 kPa
vapor or sublimation pressure (316.8 K, Crystal): 0.01044 ± 0.00058 kPa and 0.01061 ± 0.00055 kPa
vapor or sublimation pressure (317.3 K, Crystal): 0.01125 ± 0.00061 kPa
vapor or sublimation pressure (320.3 K, Crystal): 0.015 ± 0.00076 kPa
vapor or sublimation pressure (323.3 K, Crystal): 0.02013 ± 0.001 kPa
vapor or sublimation pressure (326.3 K, Crystal): 0.02645 ± 0.0013 kPa
vapor or sublimation pressure (329.4 K, Crystal): 0.03488 ± 0.0017 kPa
vapor or sublimation pressure (332.5 K, Crystal): 0.04531 ± 0.0022 kPa
vapor or sublimation pressure (335.5 K, Crystal): 0.05882 ± 0.0029 kPa
vapor or sublimation pressure (338.2 K, Crystal): 0.07513 ± 0.0037 kPa
vapor or sublimation pressure (340.3 K, Crystal): 0.08978 ± 0.0044 kPa
vapor or sublimation pressure (342.8 K, Liquid): 0.1027 ± 0.0048 kPa
vapor or sublimation pressure (343.2 K, Liquid): 0.1041 ± 0.005 kPa
vapor or sublimation pressure (343.8 K, Liquid): 0.1081 ± 0.0052 kPa
vapor or sublimation pressure (345.2 K, Liquid): 0.1191 ± 0.0057 kPa
vapor or sublimation pressure (346.3 K, Liquid): 0.1271 ± 0.006 kPa
vapor or sublimation pressure (347.3 K, Liquid): 0.1317 ± 0.0063 kPa
vapor or sublimation pressure (348.3 K, Liquid): 0.1419 ± 0.0069 kPa
vapor or sublimation pressure (348.9 K, Liquid): 0.1495 ± 0.0072 kPa
vapor or sublimation pressure (350.4 K, Liquid): 0.1613 ± 0.0077 kPa
vapor or sublimation pressure (351.4 K, Liquid): 0.1716 ± 0.0082 kPa
vapor or sublimation pressure (353.3 K, Liquid): 0.1898 ± 0.009 kPa
vapor or sublimation pressure (353.9 K, Liquid): 0.1975 ± 0.0099 kPa
vapor or sublimation pressure (354.4 K, Liquid): 0.2102 ± 0.01 kPa
vapor or sublimation pressure (356.4 K, Liquid): 0.2268 ± 0.011 kPa
vapor or sublimation pressure (357.5 K, Liquid): 0.2519 ± 0.012 kPa
vapor or sublimation pressure (359 K, Liquid): 0.2809 ± 0.013 kPa
vapor or sublimation pressure (359.4 K, Liquid): 0.2784 ± 0.013 kPa
vapor or sublimation pressure (360.5 K, Liquid): 0.2994 ± 0.014 kPa
vapor or sublimation pressure (362.5 K, Liquid): 0.3322 ± 0.016 kPa
vapor or sublimation pressure (363.2 K, Liquid): 0.3412 ± 0.016 kPa
vapor or sublimation pressure (364.1 K, Liquid): 0.3663 ± 0.017 kPa
vapor or sublimation pressure (365.5 K, Liquid): 0.3878 ± 0.018 kPa
vapor or sublimation pressure (366.3 K, Liquid): 0.4095 ± 0.02 kPa
vapor or sublimation pressure (368.1 K, Liquid): 0.4623 ± 0.022 kPa
vapor or sublimation pressure (368.6 K, Liquid): 0.463 ± 0.022 kPa
vapor or sublimation pressure (369.4 K, Liquid): 0.4939 ± 0.024 kPa
vapor or sublimation pressure (372.4 K, Liquid): 0.5714 ± 0.027 kPa
vapor or sublimation pressure (373.2 K, Liquid): 0.6103 ± 0.029 kPa and 0.6087 ± 0.029 kPa
vapor or sublimation pressure (375.4 K, Liquid): 0.6794 ± 0.032 kPa

Oc1ccc(Cl)cc1Cl [2,4-dichlorophenol]
vapor or sublimation pressure (278.2 K, Crystal): 0.00175 ± 0.0001 kPa
vapor or sublimation pressure (283.3 K, Crystal): 0.00312 ± 0.00017 kPa
vapor or sublimation pressure (289.3 K, Crystal): 0.00626 ± 0.00032 kPa
vapor or sublimation pressure (294.4 K, Crystal): 0.01082 ± 0.00054 kPa
vapor or sublimation pressure (297.3 K, Crystal): 0.01464 ± 0.00075 kPa
vapor or sublimation pressure (300.4 K, Crystal): 0.02025 ± 0.001 kPa
vapor or sublimation pressure (303.3 K, Crystal): 0.02801 ± 0.0014 kPa
vapor or sublimation pressure (306.3 K, Crystal): 0.03848 ± 0.0019 kPa
vapor or sublimation pressure (309.4 K, Crystal): 0.05208 ± 0.0026 kPa
vapor or sublimation pressure (312.4 K, Crystal): 0.06848 ± 0.0034 kPa
vapor or sublimation pressure (315.2 K, Crystal): 0.09034 ± 0.0045 kPa
vapor or sublimation pressure (317.2 K, Liquid): 0.1061 ± 0.0052 kPa
vapor or sublimation pressure (320.3 K, Liquid): 0.1326 ± 0.0064 kPa
vapor or sublimation pressure (323.2 K, Liquid): 0.1612 ± 0.0078 kPa
vapor or sublimation pressure (326.1 K, Liquid): 0.1933 ± 0.0094 kPa
vapor or sublimation pressure (329.2 K, Liquid): 0.2419 ± 0.012 kPa
vapor or sublimation pressure (332.2 K, Liquid): 0.2831 ± 0.013 kPa
vapor or sublimation pressure (335.2 K, Liquid): 0.3393 ± 0.016 kPa
vapor or sublimation pressure (338.2 K, Liquid): 0.4027 ± 0.019 kPa
vapor or sublimation pressure (341.2 K, Liquid): 0.4846 ± 0.023 kPa
vapor or sublimation pressure (344.2 K, Liquid): 0.5835 ± 0.028 kPa
